From publication PMC4436063 (mBio, 2015)

Molecular target: CheS3
Experiment: microscale thermophoresis
Assay type: binding, Rhodospirillum centenum
Details: fluorescently labelled CheS3 (Blue-NHS, 100 nM); non-hydrolysable ATP analogue

Q: `Nc1ncnc2c1ncn2[C@@H]1O[C@H](COP(=O)(O)OP(=O)(O)OP(O)(O)=S)[C@@H](O)[C@H]1O` [ATPγS] was tested. Which Kd did it give?
A: Its Kd is 112 nM.
